Source: patent US7767659B2, “Synthesis of naturally occurring ecteinascidins and related compounds” (Pharma Mar, S.A., priority 2002, dated 2010)

Key:
[1] = test system: A-549; test: cells; conditions: Homo sapiens, A549, 48 h; for GI50: read-out: GI50 A549; for CC50: read-out: LC50 A549; for IC (TGI): read-out: TGI A549
In short: (§1)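 Colorimetric SRB read (490 nm) on triplicate wells after 48 h at 37 °C, 5% CO2. Dose range 10 to 10^−8 μg/ml; 5×10^3 cells/well pre-attached 18 h.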

[2] = test system: HT-29; test: cells; conditions: Homo sapiens, HT-29, 48 h; for GI50: read-out: GI50 HT29; for CC50: read-out: LC50 HT29; for IC (TGI): read-out: TGI HT29
In short: as §1

[3] = test system: LoVo; test: cells; conditions: Homo sapiens, LoVo, 48 h; for GI50: read-out: GI50 LOVO; for CC50: read-out: LC50 LOVO; for IC (TGI): read-out: TGI LOVO
In short: as §1

[4] = test system: DU-145; test: Inhibition of cells growth by colorimetric assay (SRB); conditions: Homo sapiens, DU-145, 48 h; for GI50: read-out: GI50 DU145; for CC50: read-out: LC50 DU145; for IC (TGI): read-out: TGI DU145
In short: as §1

[5] = test system: HeLa-APL; test: as above; conditions: Homo sapiens, 48 h; for GI50: read-out: GI50 HELA-APL; for CC50: read-out: LC50 HELA-APL; for IC (TGI): read-out: TGI HELA-APL
In short: as §1

[6] = test system: HeLa; test: as above; conditions: Homo sapiens, HeLa, 48 h; for GI50: read-out: GI50 HELA; for CC50: read-out: LC50 HELA; for IC (TGI): read-out: TGI HELA
In short: as §1

[7] = test system: IGROV-1; test: as above; conditions: Homo sapiens, IGROV-1, 48 h; for GI50: read-out: GI50 IGROV; for CC50: read-out: LC50 IGROV; for IC (TGI): read-out: TGI IGROV
In short: as §1

[8] = test system: IGROV-ET; test: as above; conditions: Homo sapiens, 48 h; for GI50: read-out: GI50 IGROV-ET; for CC50: read-out: LC50 IGROV-ET; for IC (TGI): read-out: TGI IGROV-ET
In short: as §1

[9] = test system: K-562; test: as above; conditions: Homo sapiens, K562, 48 h; for GI50: read-out: GI50 K562; for CC50: read-out: LC50 K562; for IC (TGI): read-out: TGI K562
In short: as §1

[10] = test system: LNCaP; test: as above; conditions: Homo sapiens, LNCaP, 48 h; for GI50: read-out: GI50 LNCAP; for CC50: read-out: LC50 LNCAP; for IC (TGI): read-out: TGI LNCAP
In short: as §1

[11] = test system: LoVo-Dox; test: as above; conditions: Homo sapiens, 48 h; for GI50: read-out: GI50 LOVO-DOX; for CC50: read-out: LC50 LOVO-DOX; for IC (TGI): read-out: TGI LOVO-DOX
In short: as §1

[12] = test system: PANC-1; test: as above; conditions: Homo sapiens, PANC-1, 48 h; for GI50: read-out: GI50 PANC-1; for CC50: read-out: LC50 PANC-1; for IC (TGI): read-out: TGI PANC-1
In short: as §1

[13] = test system: SK-BR-3; test: as above; conditions: Homo sapiens, SK-BR-3, 48 h; for GI50: read-out: GI50 SK-BR3; for CC50: read-out: LC50 SK-BR3; for IC (TGI): read-out: TGI SK-BR3
In short: as §1

[14] = test system: SK-MEL-28; test: as above; conditions: Homo sapiens, SK-MEL-28, 48 h; for GI50: read-out: GI50 MEL-28; for CC50: read-out: LC50 MEL-28; for IC (TGI): read-out: TGI MEL-28
In short: as §1

C=CCN1[C@@H]2c3c(cc(C)c(OC)c3O)C[C@H]1[C@H](C#N)N1C2[C@@H]2SCC(N)C(=O)OC[C@H]1c1c3c(c(C)c(OC(C)=O)c12)OCO3 (stereo partly drawn) [compound 12]
GI50 [1]: 338 nM | CC50 [1]: 1160 nM | IC (TGI) [1]: 624 nM | GI50 [2]: 503 nM | CC50 [2]: 15400 nM | IC (TGI) [2]: 1270 nM | GI50 [3]: 399 nM | CC50 [3]: 3210 nM | IC (TGI) [3]: 808 nM | GI50 [4]: 535 nM | CC50 [4]: 4220 nM | IC (TGI) [4]: 1020 nM | GI50 [5]: 244 nM | CC50 [5]: 914 nM | IC (TGI) [5]: 472 nM | GI50 [6]: 344 nM | CC50 [6]: 1120 nM | IC (TGI) [6]: 621 nM | GI50 [7]: 225 nM | CC50 [7]: 1050 nM | IC (TGI) [7]: 486 nM | GI50 [8]: 635 nM | CC50 [8]: 3820 nM | IC (TGI) [8]: 1070 nM | GI50 [9]: 110 nM | CC50 [9]: 15400 nM | IC (TGI) [9]: 2510 nM | GI50 [10]: 82.5 nM | CC50 [10]: 711 nM | IC (TGI) [10]: 251 nM | GI50 [11]: 504 nM | CC50 [11]: 12200 nM | IC (TGI) [11]: 971 nM | GI50 [12]: 472 nM | CC50 [12]: 4070 nM | IC (TGI) [12]: 953 nM | GI50 [13]: 256 nM | CC50 [13]: 979 nM | IC (TGI) [13]: 501 nM | GI50 [14]: 350 nM | CC50 [14]: 1030 nM | IC (TGI) [14]: 603 nM

COc1c(C)cc2c(c1O)[C@@H]1C3[C@@H]4SC[C@]5(NCCc6c5[nH]c5ccccc65)C(=O)OC[C@@H](c5c6c(c(C)c(OC(C)=O)c54)OCO6)N3[C@@H](C#N)[C@H](C2)N1C (stereo partly drawn) [compound 22]
GI50 [1]: 26.7 nM | CC50 [1]: 131 nM | IC (TGI) [1]: 59 nM | GI50 [2]: 29.7 nM | CC50 [2]: 13100 nM | IC (TGI) [2]: 82.5 nM | GI50 [3]: 20.3 nM | CC50 [3]: 96.5 nM | IC (TGI) [3]: 41.1 nM | GI50 [4]: 29.6 nM | CC50 [4]: 1310 nM | IC (TGI) [4]: 86.8 nM | GI50 [5]: 21.1 nM | CC50 [5]: 93.5 nM | IC (TGI) [5]: 44.4 nM | GI50 [6]: 33.2 nM | CC50 [6]: 158 nM | IC (TGI) [6]: 56.6 nM | GI50 [7]: 19.1 nM | CC50 [7]: 104 nM | IC (TGI) [7]: 44.6 nM | GI50 [8]: 52.2 nM | CC50 [8]: 131 nM | IC (TGI) [8]: 104 nM | GI50 [9]: 5.92 nM | CC50 [9]: 840 nM | IC (TGI) [9]: 42.4 nM | GI50 [10]: 6.15 nM | CC50 [10]: 55 nM | IC (TGI) [10]: 21.1 nM | GI50 [11]: 87.4 nM | CC50 [11]: 13100 nM | IC (TGI) [11]: 524 nM | GI50 [12]: 29.6 nM | CC50 [12]: 854 nM | IC (TGI) [12]: 73.8 nM | GI50 [13]: 5.77 nM | CC50 [13]: 120 nM | IC (TGI) [13]: 22.3 nM | GI50 [14]: 30.2 nM | CC50 [14]: 102 nM | IC (TGI) [14]: 55.5 nM

COC1=C(C)C(=O)C2=C(C1=O)[C@@H]1C3[C@@H]4SC[C@]5(NCCc6c5[nH]c5ccccc65)C(=O)OC[C@@H](c5c6c(c(C)c(OC(C)=O)c54)OCO6)N3[C@@H](C#N)[C@H](C2)N1C (stereo partly drawn) [compound 23]
GI50 [1]: 60.6 nM | CC50 [1]: 785 nM | IC (TGI) [1]: 211 nM | GI50 [2]: 51.2 nM | CC50 [2]: 12900 nM | IC (TGI) [2]: 215 nM | GI50 [3]: 276 nM | CC50 [3]: 983 nM | IC (TGI) [3]: 522 nM | GI50 [4]: 58.5 nM | CC50 [4]: 4450 nM | IC (TGI) [4]: 143 nM | GI50 [5]: 35.6 nM | CC50 [5]: 102 nM | IC (TGI) [5]: 60.3 nM | GI50 [6]: 38.2 nM | CC50 [6]: 114 nM | IC (TGI) [6]: 66 nM | GI50 [7]: 350 nM | CC50 [7]: 1130 nM | IC (TGI) [7]: 627 nM | GI50 [8]: 456 nM | CC50 [8]: 1260 nM | IC (TGI) [8]: 760 nM | GI50 [9]: 20.3 nM | CC50 [9]: 1400 nM | IC (TGI) [9]: 73.3 nM | GI50 [10]: 153 nM | CC50 [10]: 657 nM | IC (TGI) [10]: 318 nM | GI50 [11]: 661 nM | CC50 [11]: 12900 nM | IC (TGI) [11]: 7460 nM | GI50 [12]: 509 nM | CC50 [12]: 12900 nM | IC (TGI) [12]: 1260 nM | GI50 [13]: 13.1 nM | CC50 [13]: 645 nM | IC (TGI) [13]: 87.7 nM | GI50 [14]: 247 nM | CC50 [14]: 857 nM | IC (TGI) [14]: 460 nM
